Reference: patent US8039668B2, “Naphthalene-based inhibitors of anti-apoptotic proteins” (Burnham Institute for Medical Research, priority 2008, dated 2011)
pEC50, pIC50, pKd: −log10 of the molar value. Where two headings read alike, the source gives them in different places.

Assays:
BCL-XL [1] = target: T1, BCL-XL (Homo sapiens, UniProt Q07817); assay: 1D 1H-NMR binding assay; design: key to 1D-^1H NMR: +++, Very Active; ++, Active; +, Mild; −, Weak; conditions: for 1D-^1H NMR: BCL-XL 25 μM, compound 200 μM
Procedure: By observing the aliphatic region of the spectra, binding could be readily detected due to chemical shift changes in active site methyl groups of Ile, Leu, Thr, Val or Ala (region between −0.8 and 0.3 ppm). All experiments were performed with a 600 MHz spectrometer Bruker Avance 600 equipped with four rf channels and z-axis pulse-field gradients.
Target sequence in this assay (Q07817 whole entry): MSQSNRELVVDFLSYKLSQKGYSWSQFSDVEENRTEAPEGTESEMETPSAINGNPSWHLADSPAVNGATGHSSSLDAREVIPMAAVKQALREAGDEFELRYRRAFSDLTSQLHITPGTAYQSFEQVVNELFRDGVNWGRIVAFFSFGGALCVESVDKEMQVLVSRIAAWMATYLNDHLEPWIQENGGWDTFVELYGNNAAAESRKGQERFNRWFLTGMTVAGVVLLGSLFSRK

Bcl-2 = Bcl-2 (Homo sapiens, UniProt P10415); assay: Competitive fluorescence polarization assay (FPA), Bim BH3 peptide; type: binding
Mcl-1 = Mcl-1 (Homo sapiens, UniProt Q07820); assay: as above; type: binding
Bfl-1 = target: T2, Bfl-1 (Homo sapiens, UniProt Q16548); assay: Competitive fluorescence polarization assay (FPA); type: binding
T2 sequence (Q16548 1-175): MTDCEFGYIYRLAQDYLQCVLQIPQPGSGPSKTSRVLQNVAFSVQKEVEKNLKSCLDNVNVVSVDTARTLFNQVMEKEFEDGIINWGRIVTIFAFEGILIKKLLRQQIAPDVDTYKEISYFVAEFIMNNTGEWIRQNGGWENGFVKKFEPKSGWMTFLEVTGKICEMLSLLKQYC

BCL-XL [2] = target: T1, BCL-XL; assay: Isothermal titration calorimetry (ITC); type: binding
Procedure: Titrations were performed using a VP-ITC or ITC200 calorimeter from Microcal (Northampton, Mass.). BCL-XL was used at concentrations between 25 and 100 μM in 20 mM sodium phosphate buffer (pH 7.4) and 5-10% DMSO. Titrants were used at concentrations 10-15 fold of that of the protein in the same buffer. Titrations were carried out at 25° C. Data were analyzed using Microcal Origin software provided by the ITC manufacturer (Microcal, Northampton, Mass.).
Target sequence in this assay (Q07817 whole entry): as the sequence (Q07817 whole entry) above

H1299 cell line = assay: Cell viability, ATP-LITE assay; type: cell-based, human; conditions: Homo sapiens
Summary of the method: (§1)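 Human cancer lines were seeded at 2000 (H460, H1299), 3000 (PC3) or 10,000 (RS11846) cells/well in F12 or RPMI1640 with 5% FBS. Compounds were added in 0.1% DMSO 24 h after seeding. Viability was read by ATP-LITE luminescence after 72 h and normalized to DMSO controls.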

PC3ML cells = assay: Cell viability, ATP-LITE assay; type: cell-based, human; conditions: Homo sapiens, PC3-ML
Summary of the method: as §1

[3] = system: H460 human lung cell line; assay: Cell viability, ATP-LITE assay; type: cell-based; conditions: for pEC50: Homo sapiens
Summary of the method: as §1

[4] = system: human lymphoma RS11846 cell line; assay: Apoptosis, Annexin V-FITC and propidium iodide assay; type: cell-based; conditions: Homo sapiens
[5] = system: BP3 human B-cell lymphoma cell line; assay: Annexin V-FITC and propidium iodide assay; type: cell-based; conditions: Homo sapiens, B-cell, read-out: EC50 BP3
[6] = system: Bax/Bak double knockout mouse embryonic fibroblast cells (MEF/DKO); assay: FITC-Annexin V/PI cytotoxicity in Bax/Bak double knockout cells; type: cell-based; conditions: 10 μM
Procedure: MEF/WT and MEF/DKO cells were seeded in 24-well plate at a seeding density of half a million per well (in 1 ml of DMEM medium supplemented by 10% FCS). […] On the following day, floating cells were pooled with adherent cells harvested after brief incubation with 0.25% Trypsin/EDTA solution (Gibco/In-Vitrogen Inc.). Cells were centrifuged and supernatant was discarded, and cell pellet was re-suspended with 0.2 ml of Annexin-V binding buffer, followed by addition of 1 μl Annexin-FITC and 1 μl PI (propidium iodide). The percentage of viable cells was determined by a 3-color FACSort instrument and data analyzed by Flow-Jo program, scoring Annexin V-negative, PI-negative as viable cells.

Plasma stability = type: in vitro ADME, rat; conditions: for Plasma stability (T = 1 h): Table 6, rat plasma
Procedure: Plasma Stability. A 20 μL aliquot of a 10 mM solution in DMSO of the test compound was added to 2.0 mL of heparinized rat plasma (Lampire, P1-150N) to obtain a 100 μM final solution. The mixture was incubated for 1 h at 37.5° C. Aliquots of 100 μL were taken (0, 30 min, 1 h) and diluted with 200 μL of MeOH containing internal standard.

[7] = Liver microsomal stability; type: in vitro ADME, rat; conditions: for Microsomal Stability (T = 1 h): Table 6, rat liver microsomes
Text: Liver Microsomal Stability.

B6Bcl-2 transgenic mice = conditions: for Tox: Bcl-2 transgenic mouse, single ip injection 72 μmol/kg; for percentage of maximum reduction in spleen weight (maximal biological activity) / spleen weight reduction: single ip 72 μmol/kg; for percentage of maximum reduction in spleen weight (maximal biological activity): maximum shrinkage no more than 50%; for spleen weight reduction: single mouse
Procedure: Transgenic mice expressing BCL-2 have been described as the B6 line. The BCL-2 transgene res a minigene version of a t(14;18) translocation in which the human BCL-2 gene is fused with the immunoglobulin heavy-chain (IgH) locus and associated IgH enhancer. The transgene was propagated on the Balb/c background.
After 24 hours, B6BCL2 mice were sacrificed by intraperitoneal injection of lethal dose of Avertin. Spleen was removed and weighed. […] Spleen tissue was fixed in z-FIX for 3 days and rinsed in PBS, and saved for histological analysis of spleen (H&E staining and TUNEL assay).

BCL-XL [8] = target: T1, BCL-XL; assay: Competitive fluorescence polarization assay (FPA), Bak BH3 peptide; type: binding; design: 100 nM GST-BCL-XL ΔTM protein; conditions: read-out: IC50 FPA Bcl-XL
Procedure: For competitive binding assays, 100 nM GST-BCL-XL ΔTM protein was preincubated with the tested compound at varying concentrations in 47.5 μL PBS (pH=7.4) in 96-well black plates at room temperature for 10 min, then 2.5 μL of 100 nM FITC-labeled Bak BH3 peptide was added to produce a final volume of 50 μL. The wild-type and mutant Bak BH3 peptides were included in each assay plate as positive and negative controls, respectively. […] IC50 was determined by fitting the experimental data to a sigmoidal dose-response nonlinear regression model (SigmaPlot 10.0.1, Systat Software, Inc., San Jose, Calif., USA). Data reported are mean of three independent experiments±standard error (SE). […] Fluorescence polarization was measured after 10 min.
Target sequence in this assay (Q07817 1-209 limits assumed): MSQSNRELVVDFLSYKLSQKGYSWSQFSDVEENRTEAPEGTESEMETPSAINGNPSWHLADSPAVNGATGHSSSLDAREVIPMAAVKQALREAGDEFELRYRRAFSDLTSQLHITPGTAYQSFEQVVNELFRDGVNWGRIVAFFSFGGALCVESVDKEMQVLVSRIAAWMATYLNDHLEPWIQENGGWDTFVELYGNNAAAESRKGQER

RS11846 cell line = assay: Cell viability, ATP-LITE assay; type: cell-based; conditions: Homo sapiens, read-out: RS11846 EC50 (ATP-LITE assay)
Summary of the method: as §1

[9] = NCI-H1299, heading: EC50 H1299, Table 3, ATP-LITE assay, read-out: EC50 H1299
[10] = Table 3, ATP-LITE assay, heading: EC50 PC3ML, read-out: EC50 PC3ML
[11] = NCI-H460, Table 3, ATP-LITE assay, read-out: EC50 H460
[12] = Table 3, Annexin V-FITC and propidium iodide assay, heading: EC50 RS11846, read-out: EC50 RS11846
[13] = heading: EC50 BP3, Table 3, Annexin V-FITC and propidium iodide assay
[14] = Table 3, Annexin V-FITC and propidium iodide assay

Chain of Bcl-2 (P10415 whole entry): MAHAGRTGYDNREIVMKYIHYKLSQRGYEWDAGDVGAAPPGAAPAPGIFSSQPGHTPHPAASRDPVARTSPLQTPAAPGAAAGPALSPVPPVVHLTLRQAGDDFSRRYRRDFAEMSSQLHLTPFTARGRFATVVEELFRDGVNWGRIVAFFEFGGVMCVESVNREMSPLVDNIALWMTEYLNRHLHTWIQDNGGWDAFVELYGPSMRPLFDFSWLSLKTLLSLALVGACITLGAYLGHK
Chain of Mcl-1 (Q07820 whole entry): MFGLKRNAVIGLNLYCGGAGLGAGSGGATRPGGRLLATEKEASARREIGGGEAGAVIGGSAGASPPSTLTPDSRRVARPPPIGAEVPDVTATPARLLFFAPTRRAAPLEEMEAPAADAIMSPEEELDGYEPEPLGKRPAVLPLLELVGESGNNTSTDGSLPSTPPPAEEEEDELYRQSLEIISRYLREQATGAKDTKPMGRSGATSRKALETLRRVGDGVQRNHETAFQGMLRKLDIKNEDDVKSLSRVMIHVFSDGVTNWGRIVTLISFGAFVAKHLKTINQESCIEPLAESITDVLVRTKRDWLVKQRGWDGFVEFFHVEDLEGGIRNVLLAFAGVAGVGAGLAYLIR

SMILES | 1D-^1H NMR (BCL-XL [1]; Table 3) | pIC50 (Bcl-2) | pIC50 (Mcl-1) | pIC50 (Bfl-1) | pKd (BCL-XL [2]) | pEC50 (H1299 cell line; [9]) | pEC50 (PC3ML cells; [10]) | pEC50 [3, 11] | pEC50 [4, 12] | pEC50 [5, 13] | MEF/DKO cells killed [6] | Plasma stability (T = 1 h) (Plasma stability) [%] | Microsomal Stability (T = 1 h) [7] [%] | Tox (B6Bcl-2 transgenic mice) | percentage of maximum reduction in spleen weight (maximal biological activity) (B6Bcl-2 transgenic mice) | spleen weight reduction (B6Bcl-2 transgenic mice) | pIC50 (BCL-XL [8]) | pEC50 [5, 14] | other results
Cc1cc2c(C(=O)NC(C)c3ccc(Cl)cc3)c(O)c(O)cc2c(O)c1-c1c(C)cc2c(C(=O)NC(C)c3ccc(Cl)cc3)c(O)c(O)cc2c1O (stereo not shown) [Compound 8k, N^5,N^5′-bis(1-(4-chlorophenyl)ethyl)-1,1′,6,6′,7,7′-hexahydroxy-3,3′-dimethyl-2,2′-binaphthyl-5,5′-dicarboxamide] | +++ | 6.31 | 6.64 | 6.40 | 6.96 | 5.49 | 5.30 | 6.30 | 5.26 | 5.82 | 20-35% | 94 | 71 | 4+ | 85-95% | more than 40% | 6.57 |  | 
Cc1cc2c(C(=O)NCC3CCCCC3)c(O)c(O)cc2c(O)c1-c1c(C)cc2c(C(=O)NCC3CCCCC3)c(O)c(O)cc2c1O [Compound 8m, N^5,N^5′-bis(cyclohexylmethyl)-1,1′,6,6′,7,7′-hexahydroxy-3,3′-dimethyl-2,2′-binaphthyl-5,5′-dicarboxamide] | +++ | 6.15 | 6.11 | 5.70 | 6.07 | 5.32 | 5.43 | 6.39 | 5.31 |  | 20-35% | 89 | 90 | 4+ |  |  | 5.96 | 6.05 | degraded after 1 hour incubation in rat plasma (Plasma stability; 1 hour): 11%; degraded after 1 hour incubation in rat microsomal preparations ([7]; 1 hour): 10%
Cc1cc2c(C(=O)NCCc3cccc(Cl)c3)c(O)c(O)cc2c(O)c1-c1c(C)cc2c(C(=O)NCCc3cccc(Cl)c3)c(O)c(O)cc2c1O [Compound 8p, N^5,N^5′-bis(3-chlorophenethyl)-1,1′,6,6′,7,7′-hexahydroxy-3,3′-dimethyl-2,2′-binaphthyl-5,5′-dicarboxamide] | +++ | 5.36 | 5.49 |  |  | 5.11 | 5.49 | 6.00 | 5.34 |  | 20-35% |  | 90 | 4+ | 85-95% | more than 40% | 5.20 | 6.39 | 
Cc1cc2c(C(=O)NC3Cc4ccccc4C3)c(O)c(O)cc2c(O)c1-c1c(C)cc2c(C(=O)NC3Cc4ccccc4C3)c(O)c(O)cc2c1O [Compound 8s, N^5,N^5′-bis(2,3-dihydro-1H-inden-2-yl)-1,1′,6,6′,7,7′-hexahydroxy-3,3′-dimethyl-2,2′-binaphthyl-5,5′-dicarboxamide] | ++ | 6.15 | 6.46 | 6.17 |  | 5.15 | 5.52 | 6.03 | 5.39 | 5.96 |  |  |  |  |  |  | 6.07 |  | 
Cc1cc2c(CCc3ccccc3)c(O)c(O)cc2c(O)c1-c1c(C)cc2c(CCc3ccccc3)c(O)c(O)cc2c1O [Compound 12e, 3,3′-dimethyl-5,5′-diphenethyl-2,2′-binaphthyl-1,1′,6,6′,7,7′-hexaol] |  | 6.32 | 6.08 | 5.30 | 6.39 |  |  |  |  |  | 20-35% | 80 | 89 | 0 |  |  | 5.46 |  | 1D-^1H NMR (BCL-XL [1]; Table 4): +; pEC50 (H1299 cell line; NCI-H1299, read-out: EC50 H1299): 6.24; pEC50 (PC3ML cells; read-out: EC50 PC3ML, ATP-LITE assay): 5.62; pEC50 ([3]; NCI-H460, read-out: EC50 H460): 6.04; pEC50 ([4]; read-out: EC50 RS11846, Annexin V-FITC and propidium iodide assay): 5.01; pEC50 [5]: 5.38; signs of toxicity (B6Bcl-2 transgenic mice; 72 μmol/kg and even 120 μmol/kg): no significant signs of toxicity
Cc1ccc(CC(=O)c2c(O)c(O)cc3c(O)c(-c4c(C)cc5c(C(=O)Cc6ccc(C)cc6)c(O)c(O)cc5c4O)c(C)cc23)cc1 [Compound XII, 1,1′-(1,1′,6,6′,7,7′-hexahydroxy-3,3′-dimethyl-2,2′-binaphthyl-5,5′-diyl)bis(2-p-tolylethanone)] |  |  |  |  |  |  |  |  |  |  |  |  |  |  |  |  |  |  | 1D ^1H-NMR Binding Assay (BCL-XL) (BCL-XL [1]; Table 9): ++; times more potent than Apogossypol, ITC Bcl-XL (BCL-XL [2]; vs Apogossypol): 40; pEC50 (H1299 cell line; NCI-H1299, read-out: H1299 EC50): 5.77; pEC50 (PC3ML cells; read-out: PC3ML EC50, Table 9): 5.34 to 5.72; pEC50 ([3]; NCI-H460, read-out: H460 EC50): 6.09; times more potent than Apogossypol, H460 ([3]; vs Apogossypol): 4-5; pEC50 (RS11846 cell line): 5.66; pEC50 ([4]; read-out: RS11846 EC50 (Annexin V- and propidium iodide assay), Table 9): 5.26 to 5.52
